Consider 9 compounds from PubChem BioAssay (NCI).

Structures are written as SMILES.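 Grown in 96-well plates, cells were treated for 48 hours with each compound at five concentrations. Insufficient inhibition: endpoint recorded as highest concentration tested. TGI denotes the concentration required for complete inhibition of growth.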

Holding throughout (assay): DTP human tumour cell line panel, 48 h
The subject of test [1] is OVCAR-4 ovarian.
Test [2] relates to MCF7 breast.
The subject of test [3] is NCI-H460 lung.
The subject of test [4] is MALME-3M melanoma.
Test [5] concerns K-562 leukemia.
Test [6] deals with MDA-MB-435.
Test [7] has as its system RXF 393 renal.
In test [8] the test system is SK-MEL-2 melanoma.
For test [9], the system named is HCT-15 colon.
Test [10] has as its system COLO 205 colon.
The test system of test [11] is SNB-75 CNS.
Test [12] relates to HT29 colon.
Test [13] has as its system NCI-H226 lung.
The subject of test [14] is SNB-19 CNS.
Test [15] relates to SK-OV-3 ovarian.
For test [16], the system named is TK-10 renal.

The TGI is the concentration giving total growth inhibition. The low end stands for more potent growth arrest, the high end for less potent growth arrest.

Consider `Nc1nccc(NCC2(CO)CC(OCc3ccccc3)C2)n1` (configuration not stated), for which the TGI in test [1], in test [2], in [3], in [4], in test [5] and in test [6] was above 100 µM in each case. Besides, the TGI in test [7], in [8], in test [9], in test [10], in test [11] and in [12] was above 100 µM throughout. Further, in test [13], the TGI was above 100 µM.
Regarding `Cc1ccc2nc3n[nH]c(N)c3nc2c1`, the TGI in [14], in test [1], in [2], in test [3], in [15] and in test [4] was above 100 µM in each case. The TGI in test [6], in test [7], in [8], in test [9], in test [16] and in [10] was above 100 µM throughout. Moreover, the TGI in [11], in test [12] and in test [13] was above 100 µM throughout.
In the case of `Clc1ccc(-c2cc(-c3cc4cc(Br)ccc4nc3Cl)on2)cc1`, the TGI in [14] was above 50 µM; in test [1], above 50 µM; in [2], 43.8 µM; in [3], 22.6 µM; in [15], above 50 µM; in test [4], above 50 µM. Further, the TGI is above 50 µM in test [5]; 32.1 µM in test [6]; 43.9 µM in test [7]; 21.9 µM in test [8]; above 50 µM in [9]; 15.4 µM in test [10]. Also, the TGI was above 50 µM in test [11], above 50 µM in [12] and 27.4 µM in [13].
`CCCCc1ccc(-n2sc3ncc(-c4ccccc4)cc3c2=O)cc1`: the TGI in [14], in [1], in [2], in test [3], in test [15] and in test [5] was above 100 µM throughout. The TGI in test [6], in [7], in [8], in test [9], in test [16] and in [10] was above 100 µM throughout. For the same compound, the TGI in test [11] and in test [13] was above 100 µM throughout.
For the compound `O=C1/C(=C\c2ccc(Br)cc2)CCCc2ccccc21`, the total growth inhibition concentration (TGI) is 32.6 µM in test [14]; 26.3 µM in test [1]; above 100 µM in test [2]; 34 µM in test [3]; above 100 µM in [15]; above 100 µM in [5]. For the same compound, the TGI in [6] was found to be 61.5 µM; in test [7], 43.3 µM; in test [8], 39.2 µM; in [9], 24.8 µM; in [16], 35.4 µM; in [10], 31.8 µM. For the same compound, the results for the TGI in test [11], in [12] and in test [13] were 52.7 µM, 30.4 µM and 28.6 µM, respectively.
On to `O=C(O)c1nc2ccc(C(F)(F)F)cc2nc1Nc1ccc(Cl)c(Cl)c1`, for which the TGI turned out to be 10.9 µM in test [14]; 76.1 µM in [1]; 66.7 µM in test [2]; 20.8 µM in test [3]; 31 µM in test [4]; 16.3 µM in [5]. In addition, the TGI was 19.1 µM in [6]; 28.9 µM in [7]; 11.2 µM in test [8]; 22.6 µM in [9]; above 100 µM in [16]; 25.7 µM in test [10]. Further, the TGI was determined as 29 µM in test [11], 27.1 µM in [12] and 24.9 µM in test [13].
On to `CC1(C)CO[P@@](=S)(c2ccccn2)O[C@@H]1c1ccccc1`, for which the TGI in test [14], in test [1], in [2], in test [3], in [15] and in test [4] was above 100 µM throughout. Besides, the TGI in test [5], in test [6], in test [7], in [9], in [16] and in test [10] was above 100 µM each time. In addition, the TGI in test [11], in test [12] and in test [13] was above 100 µM each time.
For the compound `COC1(C2c3ccccc3CCN2C(=O)OC(C)(C)C)C(=O)C(c2ccccc2)=C1N(C)C` (configuration not stated), the TGI in test [14] is above 100 µM; in test [1] it was above 100 µM; in test [2], above 100 µM; in [3] it was above 100 µM; in [15], above 100 µM; in [4], 93.8 µM. The total growth inhibition concentration (TGI) was 61.6 µM in [6]; above 100 µM in test [7]; 66.5 µM in test [8]; above 100 µM in [9]; above 100 µM in test [16]; 35.4 µM in test [10]. Also, the TGI in test [11] is above 100 µM; in test [12], 43.9 µM; in test [13], 59.6 µM.
For the compound `CCOC(=O)c1sc2c(c1OC(=O)c1cc(OC)c(OC)c(OC)c1)c(=O)n(-c1ccccc1)c(=S)n2-c1ccccc1`, the TGI in test [14], in test [1], in test [2], in [3], in [15] and in [4] was above 100 µM each time. Also, the TGI in test [5], in [6], in test [7], in test [9], in [16] and in [10] was above 100 µM each time. Besides, the TGI in [11], in [12] and in test [13] was above 100 µM in each case.
